Patent publication US11572399B2, “Long-acting GIP peptide analogues” (University of Copenhagen, priority 2017, dated 2023)
Peptide text beside a SMILES is read from it. * marks the point of attachment. C16 diacid = O=C(O)CCCCCCCCCCCCCCC(=O)*; Palmitoyl = CCCCCCCCCCCCCCCC(=O)*

Biological target: T1, human GIP receptor (Homo sapiens, UniProt P48546)
T1 construct: host or cells: COS-7, transient transfection (calcium phosphate), cDNA in pCMV-Script
T1 sequence (P48546 22-466): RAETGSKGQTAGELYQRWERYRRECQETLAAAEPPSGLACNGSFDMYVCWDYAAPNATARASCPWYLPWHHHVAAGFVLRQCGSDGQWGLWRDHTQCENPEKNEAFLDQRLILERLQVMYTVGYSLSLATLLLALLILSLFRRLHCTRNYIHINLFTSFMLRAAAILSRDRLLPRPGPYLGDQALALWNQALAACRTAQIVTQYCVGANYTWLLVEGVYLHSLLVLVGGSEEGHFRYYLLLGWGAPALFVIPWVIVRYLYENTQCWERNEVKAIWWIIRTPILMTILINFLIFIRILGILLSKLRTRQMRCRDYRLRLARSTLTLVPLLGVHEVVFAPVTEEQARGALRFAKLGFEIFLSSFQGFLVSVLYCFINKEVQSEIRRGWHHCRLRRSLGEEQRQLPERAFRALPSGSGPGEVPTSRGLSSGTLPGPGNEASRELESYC
Assay: cAMP accumulation assay, agonism (ligand alone)
Type: cell-based
Settings: COS-7 cells, Table 1; for Emax: COS-7, intrinsic cAMP activity
Procedure: COS-7 cells were cultured at 10% CO2 and 37° C. in Dulbecco's modified Eagle's medium 1885 supplemented with 10% fetal bovine serum, 2 mM glutamine, 180 units/ml penicillin, and 45 µg/ml streptomycin. Transient transfection of the COS-7 cells for cAMP accumulation and competition binding was performed using the calcium phosphate precipitation method with the addition of chloroquine^46-47.
Transient transfected COS-7 cells expressing the human GIP receptor were seeded in white 96-well plates with a density of 3.5*10^4/well. The day after, the cells were washed twice with Hepes buffered saline (HBS) buffer and incubated with HBS and 1 mM 3-isobutyl-1-methylxanthine (IBMX) for 30 min at 37° C. To test for agonistic properties, ligands were added and incubated for 30 min at 37° C. In order to test for antagonistic properties, the cells were preincubated with the antagonists for 10 min prior to the addition of the agonist and subsequent incubated for 20 additional min. The HitHunter™ cAMP XS assay (DiscoveRx) was carried out according to the manufacturer's instructions.
IC50, EC50, and Ki values were determined by nonlinear regression. These were carried out with the GraphPad Prism 6.0 software (GraphPad, San Diego, Calif., USA) and Microsoft Excel™. Ki values were based on the formula for one class of binding sites in homologous competition binding studies and the Cheng Prussoffs formula, respectively (DeBlasi et al., 1989). To determine the HSA binding potential, the fold change in affinity (as determined by IC50) was calculated as IC50 (plus HSA)/IC50 (minus HSA).

SMILES | Emax [%] | cAMP agonism Emax (intrinsic cAMP activity) | EC50 (read-out: cAMP agonism nM (EC50)) [nM]
CCCCCCCCCCCC(=O)NCCCC[C@H](NC(=O)[C@H](CCC(N)=O)NC(=O)[C@H](C)NC(=O)[C@H](CC(C)C)NC(=O)[C@H](CC(C)C)NC(=O)[C@H](Cc1c[nH]c2ccccc12)NC(=O)[C@H](CC(N)=O)NC(=O)[C@@H](NC(=O)[C@H](Cc1ccccc1)NC(=O)[C@H](CC(=O)O)NC(=O)[C@H](CCC(N)=O)NC(=O)[C@H](CCC(N)=O)NC(=O)[C@H](Cc1c[nH]cn1)NC(=O)[C@@H](NC(=O)[C@H](CCCCN)NC(=O)[C@H](CC(=O)O)NC(=O)[C@H](CCSC)NC(=O)[C@H](C)NC(=O)[C@@H](NC(=O)[C@H](CO)NC(=O)[C@H](Cc1ccc(O)cc1)NC(=O)[C@H](CC(=O)O)NC(=O)[C@H](CO)NC(=O)[C@@H](NC(=O)[C@H](Cc1ccccc1)NC(=O)[C@@H](N)[C@@H](C)O)[C@@H](C)CC)[C@@H](C)CC)[C@@H](C)CC)C(C)C)C(N)=O [AT120, [hGIP(5-30)NH2—C12/30]] | 0 |  | 
CC[C@H](C)[C@H](NC(=O)[C@H](CO)NC(=O)[C@H](Cc1ccc(O)cc1)NC(=O)[C@H](CC(=O)O)NC(=O)[C@H](CO)NC(=O)[C@@H](NC(=O)[C@H](Cc1ccccc1)NC(=O)[C@@H](NC(=O)CNC(=O)[C@@H](N)CCC(=O)O)[C@@H](C)O)[C@@H](C)CC)C(=O)N[C@@H](C)C(=O)N[C@@H](CCSC)C(=O)N[C@@H](CC(=O)O)C(=O)N[C@@H](CCCCN)C(=O)N[C@H](C(=O)N[C@@H](Cc1c[nH]cn1)C(=O)N[C@@H](CCC(N)=O)C(=O)N[C@@H](CCC(N)=O)C(=O)N[C@@H](CC(=O)O)C(=O)N[C@@H](CCCCNC(=O)CCCCCCCCCCCCCCC(=O)O)C(=O)N[C@H](C(=O)N[C@@H](CC(N)=O)C(=O)N[C@@H](Cc1c[nH]c2ccccc12)C(=O)N[C@@H](CC(C)C)C(=O)N[C@@H](CC(C)C)C(=O)N[C@@H](C)C(=O)N[C@@H](CCC(N)=O)C(=O)N[C@@H](CCCCN)C(N)=O)C(C)C)[C@@H](C)CC [AT311, [hGIP(3-30)NH2[F22K]-C16diacid/22]] (H-EGTFISDYSIAMDKIHQQDK(C16 diacid)VNWLLAQK-NH2; N-terminus assumed) | 17.5 |  | 
CC[C@H](C)[C@H](NC(=O)[C@H](CCCCNC(=O)CCCCCCCCCCCCCCC(=O)O)NC(=O)[C@H](Cc1ccc(O)cc1)NC(=O)[C@H](CC(=O)O)NC(=O)[C@H](CO)NC(=O)[C@@H](NC(=O)[C@H](Cc1ccccc1)NC(=O)[C@@H](NC(=O)CNC(=O)[C@@H](N)CCC(=O)O)[C@@H](C)O)[C@@H](C)CC)C(=O)N[C@@H](C)C(=O)N[C@@H](CCSC)C(=O)N[C@@H](CC(=O)O)C(=O)N[C@@H](CCCCN)C(=O)N[C@H](C(=O)N[C@@H](Cc1c[nH]cn1)C(=O)N[C@@H](CCC(N)=O)C(=O)N[C@@H](CCC(N)=O)C(=O)N[C@@H](CC(=O)O)C(=O)N[C@@H](Cc1ccccc1)C(=O)N[C@H](C(=O)N[C@@H](CC(N)=O)C(=O)N[C@@H](Cc1c[nH]c2ccccc12)C(=O)N[C@@H](CC(C)C)C(=O)N[C@@H](CC(C)C)C(=O)N[C@@H](C)C(=O)N[C@@H](CCC(N)=O)C(=O)N[C@@H](CCCCN)C(N)=O)C(C)C)[C@@H](C)CC [AT302, [hGIP(3-30)NH2[S11K]-C16diacid/11]] (H-EGTFISDYK(C16 diacid)IAMDKIHQQDFVNWLLAQK-NH2; N-terminus assumed) |  | no ag. | 
CC[C@H](C)[C@H](NC(=O)[C@H](CO)NC(=O)[C@H](Cc1ccc(O)cc1)NC(=O)[C@H](CC(=O)O)NC(=O)[C@H](CO)NC(=O)[C@@H](NC(=O)[C@H](Cc1ccccc1)NC(=O)[C@@H](NC(=O)CNC(=O)[C@@H](N)CCC(=O)O)[C@@H](C)O)[C@@H](C)CC)C(=O)N[C@@H](C)C(=O)N[C@@H](CCSC)C(=O)N[C@@H](CC(=O)O)C(=O)N[C@@H](CCCCN)C(=O)N[C@H](C(=O)N[C@@H](Cc1c[nH]cn1)C(=O)N[C@@H](CCC(N)=O)C(=O)N[C@@H](CCC(N)=O)C(=O)N[C@@H](CC(=O)O)C(=O)N[C@@H](Cc1ccccc1)C(=O)N[C@@H](CCCCNC(=O)CCCCCCCCCCCCCCC(=O)O)C(=O)N[C@@H](CC(N)=O)C(=O)N[C@@H](Cc1c[nH]c2ccccc12)C(=O)N[C@@H](CC(C)C)C(=O)N[C@@H](CC(C)C)C(=O)N[C@@H](C)C(=O)N[C@@H](CCC(N)=O)C(=O)N[C@@H](CCCCN)C(N)=O)[C@@H](C)CC [AT312, [hGIP(3-30)NH2[V23K]-C16diacid/23]] (H-EGTFISDYSIAMDKIHQQDFK(C16 diacid)NWLLAQK-NH2; N-terminus assumed) | 54 |  | 
CCCCCCCCCCCCCCCC(=O)NCCCC[C@H](NC(=O)[C@@H](NC(=O)[C@H](CCCNC(=N)N)NC(=O)[C@H](CC(=O)O)NC(=O)[C@H](CCSC)NC(=O)[C@H](C)NC(=O)[C@@H](NC(=O)[C@H](CO)NC(=O)[C@H](Cc1ccc(O)cc1)NC(=O)[C@H](CC(=O)O)NC(=O)[C@H](CO)NC(=O)[C@@H](NC(=O)[C@H](Cc1ccccc1)NC(=O)[C@@H](NC(=O)CNC(=O)[C@@H](N)CCC(=O)O)[C@@H](C)O)[C@@H](C)CC)[C@@H](C)CC)[C@@H](C)CC)C(=O)N[C@@H](CCC(N)=O)C(=O)N[C@@H](CCC(N)=O)C(=O)N[C@@H](CC(=O)O)C(=O)N[C@@H](Cc1ccccc1)C(=O)N[C@H](C(=O)N[C@@H](CC(N)=O)C(=O)N[C@@H](Cc1c[nH]c2ccccc12)C(=O)N[C@@H](CC(C)C)C(=O)N[C@@H](CC(C)C)C(=O)N[C@@H](C)C(=O)N[C@@H](CCC(N)=O)C(=O)N[C@@H](CCCNC(=N)N)C(N)=O)C(C)C [AT144, [hGIP(3-30)NH2[K16R; H18K; K30R]-C16/18]] (H-EGTFISDYSIAMDRIK(Palmitoyl)QQDFVNWLLAQR-NH2; N-terminus assumed) | 0 |  | 
CC[C@H](C)[C@H](NC(=O)[C@H](CO)NC(=O)[C@H](Cc1ccc(O)cc1)NC(=O)[C@H](CC(=O)O)NC(=O)[C@H](CO)NC(=O)[C@@H](NC(=O)[C@H](Cc1ccccc1)NC(=O)[C@@H](NC(=O)CNC(=O)[C@@H](N)CCC(=O)O)[C@@H](C)O)[C@@H](C)CC)C(=O)N[C@@H](C)C(=O)N[C@@H](CCSC)C(=O)N[C@@H](CC(=O)O)C(=O)N[C@@H](CCCCN)C(=O)N[C@H](C(=O)N[C@@H](Cc1c[nH]cn1)C(=O)N[C@@H](CCC(N)=O)C(=O)N[C@@H](CCC(N)=O)C(=O)N[C@@H](CC(=O)O)C(=O)N[C@@H](Cc1ccccc1)C(=O)N[C@H](C(=O)N[C@@H](CC(N)=O)C(=O)N[C@@H](Cc1c[nH]c2ccccc12)C(=O)N[C@@H](CC(C)C)C(=O)N[C@@H](CCCCNC(=O)CCCCCCCCCCCCCCC(=O)O)C(=O)N[C@@H](C)C(=O)N[C@@H](CCC(N)=O)C(=O)N[C@@H](CCCCN)C(N)=O)C(C)C)[C@@H](C)CC [AT316, [hGIP(3-30)NH2[L27K]-C16diacid/27]] (H-EGTFISDYSIAMDKIHQQDFVNWLK(C16 diacid)AQK-NH2; N-terminus assumed) | 6.2 |  | 
CC[C@H](C)[C@H](NC(=O)[C@H](CO)NC(=O)[C@H](Cc1ccc(O)cc1)NC(=O)[C@H](CC(=O)O)NC(=O)[C@H](CO)NC(=O)[C@@H](NC(=O)[C@H](Cc1ccccc1)NC(=O)[C@@H](NC(=O)CNC(=O)[C@@H](N)CCC(=O)O)[C@@H](C)O)[C@@H](C)CC)C(=O)N[C@@H](C)C(=O)N[C@@H](CCSC)C(=O)N[C@@H](CC(=O)O)C(=O)N[C@@H](CCCCN)C(=O)N[C@H](C(=O)N[C@@H](Cc1c[nH]cn1)C(=O)N[C@@H](CCC(N)=O)C(=O)N[C@@H](CCC(N)=O)C(=O)N[C@@H](CC(=O)O)C(=O)N[C@@H](Cc1ccccc1)C(=O)N[C@H](C(=O)N[C@@H](CC(N)=O)C(=O)N[C@@H](CCCCNC(=O)CCCCCCCCCCCCCCC(=O)O)C(=O)N[C@@H](CC(C)C)C(=O)N[C@@H](CC(C)C)C(=O)N[C@@H](C)C(=O)N[C@@H](CCC(N)=O)C(=O)N[C@@H](CCCCN)C(N)=O)C(C)C)[C@@H](C)CC [AT314, [hGIP(3-30)NH2[W25K]-C16diacid/25]] (H-EGTFISDYSIAMDKIHQQDFVNK(C16 diacid)LLAQK-NH2; N-terminus assumed) | 28.4 |  | 62
